One may read the IC50 as the concentration needed to halve the response being measured. Broadly, the Km is the concentration of substrate that gives half-maximal velocity. A word on the EC50: it is the midpoint of the concentration-response curve. A high value points to a need for much substance.

What all share (assay): coupled phosphoglucoisomerase / glucose-6-phosphate dehydrogenase assay, NADP+ reduction at […] nm
Holding throughout (format): biochemical, Trachemys scripta elegans

The target of experiment [1] is T1, FBPase (control liver).
T1 construct: gene FBP1; native, purified from liver of normoxic control turtles (phosphocellulose, CM cellulose); ~37 kDa on SDS-PAGE; band sent for mass spectrometry; tetramer in homology model
Particulars: inhibitor, allosteric, pH 7.2 imidazole, 5 mM MgSO4, 0.2 mM NADP+, 22 °C, FBP 0.1 mM as optimal assay.

Experiment [2] concerns the target T2, FBPase (anoxic liver).
T2 construct: gene FBP1; native, purified from liver of 20 h anoxic turtles
As to conditions: inhibitor, allosteric; pH 7.2 imidazole, 5 mM MgSO4, 0.2 mM NADP+, 22 °C; FBP 0.1 mM as optimal assay; enzyme from anoxic liver.

Experiment [3] deals with T2, FBPase (anoxic liver). Particulars: pH 7.2 imidazole, 5 mM MgSO4, 0.2 mM NADP+, 22 °C; paper states subsaturating FBP (0.24 µM); enzyme from anoxic liver.
The test system of experiment [4] is T1, FBPase (control liver). Particulars: pH 7.2 imidazole, 5 mM MgSO4, 0.2 mM NADP+, 22 °C; paper states subsaturating FBP (0.24 µM).
Experiment [5] addresses T1, FBPase (control liver). As to conditions: activation constant, activator, pH 7.2 imidazole, 5 mM MgSO4, 22 °C.
Experiment [6] has as its target T2, FBPase (anoxic liver). As to conditions: activation constant, activator, pH 7.2 imidazole, 5 mM MgSO4, 22 °C, enzyme from anoxic liver.

Consider `Nc1ncnc2c1ncn2[C@@H]1O[C@H](COP(=O)(O)O)[C@@H](O)[C@H]1O` [AMP], for which the IC50 against FBPase (control liver) [1] was found to be 0.0061 ± 0.0001 mM; against FBPase (anoxic liver) [2] it was 3.6 ± 0.3 µM.

Regarding `O=P(O)(O)OC[C@H]1OC(O)(COP(=O)(O)O)[C@@H](O)[C@@H]1O` (stereo partly drawn) [FBP], the Km came to 59.8 ± 5.2 µM in the experiment on FBPase (anoxic liver) [3] and 26.9 ± 3 µM in the experiment on FBPase (control liver) [4].

On to `Nc1ncnc2c1ncn2[C@@H]1O[C@H](COP(=O)(O)OP(=O)(O)O)[C@@H](O)[C@H]1O` [ADP], for which the IC50 at FBPase (control liver) [1] (text b33 prints mM for this value, table µM) was determined as 0.0118 ± 0.0003 mM; at FBPase (anoxic liver) [2] it was 8.3 ± 0.6 µM.

As for `C[C@H](N)C(=O)O` [Alanine], the EC50 at FBPase (control liver) [5] amounted to 2.85 ± 0.24 µM; at FBPase (anoxic liver) [6], 3.3 ± 0.1 µM.

In the case of `C=C(OP(=O)(O)O)C(=O)O` [PEP], the EC50 at FBPase (control liver) [5] is 0.33 ± 0.09 µM; at FBPase (anoxic liver) [6], 3.3 ± 0.2 µM.

In the case of `Nc1ncnc2c1ncn2[C@@H]1O[C@H](COP(=O)(O)OP(=O)(O)OP(=O)(O)O)[C@@H](O)[C@H]1O` [ATP.Mg], the values for the EC50 on FBPase (control liver) [5] (ATP.Mg 1:1) and at FBPase (anoxic liver) [6] (ATP.Mg 1:1) were 144 ± 7 µM and 25 ± 0.9 µM, respectively.

The values are drawn from article PMC8534150, “New Insights to Regulation of Fructose-1,6-bisphosphatase during Anoxia in Red-Eared Slider, Trachemys scripta elegans” (Biomolecules, 2021).
